Laboratory results reported in article PMC12040169 (PLOS Biology, 2025).

assay: in vitro; conditions: human, hela cells, % viability

SMILES	viability at 28.5 h, 10 µM [%]
O=C(c1ccc2[nH]ccc2c1)N1CCN(CC2CCOC2)CC1 (centres unmarked) [CBK304866]	111
CN(C)C(=O)c1cccc(S(=O)(=O)NCC2CCCO2)c1 (centres unmarked) [CBK304867]	93.2
COC(=O)c1cccc2c1CCCN2Cc1nnc(C2CC2)o1 [CBK304868]	90.2
CC(Sc1nncs1)C(=O)N1CCCc2ccccc21 (centres unmarked) [CBK304871]	94.6
Cc1ccccc1OCC(O)CN1CCCC(C(F)(F)F)C1 (centres unmarked) [CBK304873]	103
CC(=O)Nc1cccc(NCc2csc(C3CCCC3)n2)c1 [CBK304874]	110
COc1ccc(CNC2CCCc3c2cnn3C)c(OC)c1 (centres unmarked) [CBK304875]	103
COC(=O)c1cccn2cc(CN3CCOCC3(C)C)nc12 [CBK304879]	93.8
CCN(Cc1cn2cccc(C(=O)OC)c2n1)CC1CCOC1 (centres unmarked) [CBK304880]	96.6
COC1CCN(C2CCc3c(Cl)cc(Cl)cc32)CC1 (centres unmarked) [CBK304883]	90.6
COCCNC(=O)c1nn(-c2cccc(C(C)C)c2)cc1O [CBK304884]	90.8
Cc1ccc(S(=O)(=O)N(CCO)CC2CC2)c(Cl)c1 [CBK304885]	75
COCCOCCCC(=O)OCC1Cc2cc(F)ccc2O1 (centres unmarked) [CBK304886]	91.2
Cc1cccc(OCC(C)NC(=O)NCCc2cnn(C)c2)c1 (centres unmarked) [CBK304887]	98.5
CS(=O)(=O)NC1CCCN(Cc2nc(N)c3ccccc3n2)C1 (centres unmarked) [CBK304889]	93.8
CC(C)Cn1ncc2cc(C(=O)Nc3cccnc3N(C)C)cnc21 [CBK304891]	87.1
CCn1c(=O)n(CC(C)(C)O)c2cc(S(=O)(=O)N(C)C)ccc21 [CBK304893]	92.8
COc1ccnc(N2CCN(C(=O)c3cncnc3C)CC2)n1 [CBK304894]	104
Cc1nc2ccccc2c(C)c1CC(=O)N(C)Cc1cnn(C)c1 [CBK304895]	96.1
CC(=O)N1CCN(CCNc2ncnc3sc4c(c23)CCC(C)C4)CC1 (centres unmarked) [CBK304897]	93
COc1ccnc(N2CCN(C(=O)c3cnn(C)c3C3CC3)CC2)n1 [CBK304900]	85.3
COC(=O)c1ccc(N2CCN(Cc3nc(C)c(C)o3)C(C)C2)cc1 (centres unmarked) [CBK304903]	105
O=C(Nc1ncn(CC(=O)N2CCCCCC2)n1)c1cccc(F)c1 [CBK304904]	87.5

SMILES	viability at 28.5 h, 10 µM [%]
Cc1nc(-c2cccnc2)[nH]c(=O)c1CC(=O)N(C)C1CCCC1 [CBK304907]	83
Cc1cc(NC(=O)CCN2CCC(N3CCNC3=O)CC2)no1 [CBK304909]	89.9
N#CC1(NC(=O)CN2CCOC(Cn3cccn3)C2)CCCC1 (centres unmarked) [CBK304911]	95.8
O=C1CCC(C(=O)N2CC3(CCCC3)c3c(F)cccc32)CN1 (centres unmarked) [CBK304914]	85.7
Cc1cccc(OCC(=O)Nc2ncn(Cc3cccnc3)n2)c1 [CBK304919]	95.9
Cn1cc(CN2CCCN(C(=O)c3cc4ccccc4[nH]3)CC2)cn1 [CBK304920]	96
CCN(CC(C)C#N)C(=O)c1nn(-c2ccccc2)c(C)cc1=O (centres unmarked) [CBK304925]	109
CC(NS(=O)(=O)Cc1ccccc1Cl)C(=O)N1CCCCC1 (centres unmarked) [CBK304928]	93.7
Cc1nc(CN2CCCC(NCc3cccc(C(N)=O)c3)C2)no1 (centres unmarked) [CBK304929]	94.2
Cc1cnn(C2CCCN(C(=O)CC3C(=O)Nc4ccccc43)C2)c1 (centres unmarked) [CBK304930]	81.7
O=C(Cn1cnc2ccc(F)cc2c1=O)N1CCOC2CCCC21 (centres unmarked) [CBK304932]	90.4
CCNC(=O)C1(NC(=O)Cc2cn3cccc(C)c3n2)CCCCC1 [CBK304933]	106
CC(=O)N1CCCc2cc(NC(=O)NCCc3cnn(C)c3)ccc21 [CBK304937]	88.7
Cn1cc(C(=O)NC2CCN(c3ccc(C#N)cc3F)CC2)cn1 [CBK304939]	83.7
Cc1cnn(CC2CC2)c1NC(=O)Cc1csc(N2CCCC2=O)n1 [CBK304940]	92.4
CNC(=O)CN(CCO)Cc1cc(Br)ccc1F [CBK304941]	108
CCOc1ccnc(N2CCN(C(=O)CCc3ccsc3)CC2)n1 [CBK304942]	99.4
COc1ccc(C)cc1-n1ccc(C(=O)NC2(C#N)CCSC2)n1 (centres unmarked) [CBK304943]	93.1
Cc1cccn2c(=O)cc(CN3CCCC(N4CCNC4=O)C3)nc12 (centres unmarked) [CBK304947]	88.4
CC1CCC(C(N)=O)CN1C(=O)c1csc(COc2ccc(Cl)cc2)n1 (centres unmarked) [CBK304948]	102
COC(=O)c1cccn2cc(CN3CCOC4CCCCC43)nc12 (centres unmarked) [CBK304949]	106
Cc1ccc(C(=O)Nc2ncn(CC(=O)N3CCCCCC3)n2)s1 [CBK304951]	98.2
COc1ccccc1CC(=O)Nc1ncccc1OCCCC#N [CBK304952]	91

SMILES	viability at 28.5 h, 10 µM [%]
CCn1ncc2c(C(=O)NC(C)COC)cc(-c3cccs3)nc21 (centres unmarked) [CBK304955]	87.1
COC(=O)c1cccn2cc(CN3CCSC(C)C3)nc12 (centres unmarked) [CBK304958]	97.4
Cc1nc2c(c(C)c1CC(=O)NCc1cccc(C#N)c1)c(=O)[nH]n2C [CBK304959]	92.4
COc1cccc(CC(=O)Nc2ncccc2OCCCC#N)c1 [CBK304961]	88
Cc1nc(CN2CCCC(NCc3ccc(C(N)=O)cc3)C2)no1 (centres unmarked) [CBK304962]	88.3
COC(=O)C1CCCN1CC(=O)NCc1ccc(OCC(N)=O)cc1 (centres unmarked) [CBK304970]	86.1
CC1CC1C(=O)N(C)C1CCN(c2ncnc3ccccc23)CC1 (centres unmarked) [CBK304972]	83.3
CC1CCc2c(sc3nc(CN4CCCCC4C)[nH]c(=O)c23)C1 (centres unmarked) [CBK304975]	89.3
CCCn1c(O)cc(=O)nc1SCC(=O)N1CCCc2ccccc21 [CBK304977]	79.1
Cc1cc(C(=O)N2CCc3c(sc4ncnc(N)c34)C2)c(C)s1 [CBK304980]	88.5
COc1cccc(CC(=O)Nc2ncccc2C)c1 [CBK304982]	98.9
Cc1ccc(NC(=O)CCc2c(C)nc(N3CCOCC3)[nH]c2=O)cc1 [CBK304985]	98.2
Cc1nc(N2CCOCC2)[nH]c(=O)c1CCC(=O)Nc1ccc(F)cc1 [CBK304990]	91.1
CC1CCc2sc(C(=O)N3CCC4(CC3)NC(=O)NC4=O)cc2C1 (centres unmarked) [CBK304992]	89.1
Cc1nc2nc(N)nn2c(C)c1CCC(=O)NCc1cccc(Cl)c1 [CBK304993]	87.5
CCCn1ccnc1SCC(=O)Nc1ccc(N(C)C)cc1 [CBK304996]	112
COC(=O)c1ccc2c(=O)n(CC(C)O)c(SC3CCOC3=O)nc2c1 (centres unmarked) [CBK304997]	84.7
Cc1ccc(Cc2cnc(NC(=O)CN3CSCC3=O)s2)cc1Cl [CBK305001]	82
CC1CCc2c(C(=O)N(C)CC(=O)NC(C)(C)C)csc2C1 (centres unmarked) [CBK305002]	97.5
CCOC(=O)c1cnc(SC(C)C(=O)N2CCc3ccccc32)nc1N (centres unmarked) [CBK305007]	86.9
COc1ccc(S(=O)(=O)N2CCOCC2)cc1C(=O)N1CCCC(C)C1 (centres unmarked) [CBK305011]	110
CC1CCCN(C(=O)c2cc(S(=O)(=O)N3CCOCC3)ccc2Cl)C1 (centres unmarked) [CBK305012]	99.5
CC(C)CC(=O)N1CCN(Cc2nc3sc4c(c3c(=O)[nH]2)CCC4)CC1 [CBK305014]	86.4

SMILES	viability at 28.5 h, 10 µM [%]
CN(C)c1nc(-c2ccc3c(c2)CCCN3S(C)(=O)=O)cs1 [CBK305016]	87.1
COC(=O)c1ccc2c(=O)n(CC(C)O)c(SC)nc2c1 (centres unmarked) [CBK305018]	88
Cc1csc2nc(CN3CCN(C(=O)c4ccccc4)CC3)cc(=O)n12 [CBK305019]	110
CS(=O)(=O)N1CCCc2cc(-c3csc(N4CCOCC4)n3)ccc21 [CBK305022]	84.8
O=C(NCCCc1ccccc1)c1cccc(S(=O)(=O)N2CCCC2)c1 [CBK305024]	96.1
CCCC(=O)Nc1ccc(-c2csc(N3CCN(C)CC3)n2)cc1 [CBK305025]	103
CCCn1c(SCC(=O)NC2CCN(CC)CC2)nc2cc(Cl)ccc21 [CBK305027]	104
COc1ccccc1C(CNC(=O)Nc1cc(C)on1)N(C)C (centres unmarked) [CBK305028]	97.8
CC(Sc1nc2ccccc2c(=O)n1C)C(=O)N1CCOCC1 (centres unmarked) [CBK305031]	88.5
CC1CCCCN1S(=O)(=O)c1ccc(-n2ncc(Cl)c(Cl)c2=O)cc1 (centres unmarked) [CBK305035]	90.6
COC(=O)CNC(=O)c1cc(-c2ccc(C)s2)nc2c1cnn2C(C)C [CBK305040]	99.5
O=C(Cn1ccc(=O)[nH]c1=O)NCc1ccc(OCC(F)(F)F)cc1 [CBK305041]	109
N#Cc1ccnc(N2CCN(CC(=O)NCC(F)(F)F)CC2)c1 [CBK305042]	95.1
CC(=O)Nc1cccc(-n2nnnc2SCC(=O)N2CCNC2=O)c1 [CBK305043]	88.5
Cc1ccsc1C(=O)N1CCN(Cc2cc(=O)n3ccccc3n2)CC1 [CBK305044]	102
N#Cc1cccc(C(=O)NCCc2cn3c(n2)CCCC3)c1 [CBK305046]	93.9
COc1cccc(CC(=O)Nc2ncccc2O)c1 [CBK305047]	95.3
O=C(NCCN1CCc2ccccc2C1)C1CCCCC1 [CBK305049]	115
CCOC(=O)N1CCN(S(=O)(=O)c2ccc3c(c2)oc(=O)n3CC)CC1 [CBK305055]	99
Cn1ncc2c(=O)n(Cc3noc(-c4ccsc4)n3)cnc21 [CBK305056]	99
Cc1cc(NC(=O)NC2CC3(CCN(C)CC3)Oc3ccccc32)no1 (centres unmarked) [CBK305059]	104
CC(C)c1nc2c(n1C)CCN(Cc1cc(=O)n3ccccc3n1)C2 [CBK305061]	92.6
CCc1ccc2c(c1)C(CCNC(=O)CCc1ccsc1)C(=O)N2 (centres unmarked) [CBK305063]	94.5
